6 compounds from patent US9713651B2, “Compositions, methods, and systems for the synthesis and use of imaging agents” (Lantheus Medical Imaging, Inc., priority 2012, dated 2017) can be followed below.

A short description of this series: Tissue distribution of 18F imaging agents in rats. It counts as in vivo, Male Sprague Dawley rats. Particulars: rat, iv tail vein ~15 μCi, ± SEM; for Blood, imaging agent distribution at 15 min / Brain, imaging agent distribution at 15 min / Femur, imaging agent distribution at 15 min / Heart, imaging agent distribution at 15 min / Kidney, imaging agent distribution at 15 min / Liver, imaging agent distribution at 15 min / Lung, imaging agent distribution at 15 min / Muscle, imaging agent distribution at 15 min / Pancreas, imaging agent distribution at 15 min / Spleen, imaging agent distribution at 15 min: 15 min post injection; for Blood, imaging agent distribution at 60 min / Brain, imaging agent distribution at 60 min / Femur, imaging agent distribution at 60 min / Heart, imaging agent distribution at 60 min / Kidney, imaging agent distribution at 60 min / Liver, imaging agent distribution at 60 min / Lung, imaging agent distribution at 60 min / Muscle, imaging agent distribution at 60 min / Pancreas, imaging agent distribution at 60 min / Spleen, imaging agent distribution at 60 min: 60 min post injection. On the procedure: Anesthetized (sodium pentobarbital at 50 mg/kg, ip or isoflurane gas inhalation) Male Sprague Dawley rats (250-350 g) received an iv injection of the imaging agent (˜15 μCi) via the tail vein. At 15 or 60 min post injection, the animals were euthanized and the required tissue samples harvested. All samples were then weighed and counted for radioactivity (Wallac Wizard 1480 or Packard Cobra II Autogamma); regional tissue uptake of the imaging agent was thus expressed as a percentage of the total injected dose per gram of tissue (% ID/g).
The generic structure depicted below highlights specific structural features evaluated during distribution experiments.

Each structure is given as a SMILES string.

`CC(C)(C)n1ncc(OCc2ccc(C(=O)OCCF)cc2)c(Cl)c1=O` [Example 67J]: the “Blood, imaging agent distribution at 15 min” value (shortened to “Blood … at 15 min”) was 0.50 ± 0.02 % ID/g; the “Brain, imaging agent distribution at 15 min” value (from here on “Brain … at 15 min”) turned out to be 0.36 ± 0.01 % ID/g; the “Femur, imaging agent distribution at 15 min” value (“Femur … at 15 min” for short) is 0.28 ± 0.02 % ID/g; the “Heart, imaging agent distribution at 15 min” value (“Heart … at 15 min” for short) was 1.19 ± 0.25 % ID/g. Besides, the “Kidney, imaging agent distribution at 15 min” value (“Kidney … at 15 min” for short) is 0.39 ± 0.01 % ID/g; the “Liver, imaging agent distribution at 15 min” value (from here on “Liver … at 15 min”) is given as 0.32 ± 0.01 % ID/g; the “Lung, imaging agent distribution at 15 min” value (“Lung … at 15 min” for short) is listed as 0.39 ± 0.02 % ID/g; the “Muscle, imaging agent distribution at 15 min” value (“Muscle … at 15 min” below) was found to be 0.38 ± 0.04 % ID/g. Further, the “Pancreas, imaging agent distribution at 15 min” value (“Pancreas … at 15 min” for short) turned out to be 0.23 ± 0.02 % ID/g; the “Spleen, imaging agent distribution at 15 min” value (shortened to “Spleen … at 15 min”) amounted to 0.34 ± 0.01 % ID/g; the “Blood, imaging agent distribution at 60 min” value (shortened to “Blood … at 60 min”) came to 0.58 ± 0.04 % ID/g; the “Brain, imaging agent distribution at 60 min” value (from here on “Brain … at 60 min”) is reported as 0.43 ± 0.02 % ID/g. Moreover, the “Femur, imaging agent distribution at 60 min” value (“Femur … at 60 min” for short) was 0.40 ± 0.03 % ID/g; the “Heart, imaging agent distribution at 60 min” value (“Heart … at 60 min” for short) amounted to 0.50 ± 0.03 % ID/g; the “Kidney, imaging agent distribution at 60 min” value (“Kidney … at 60 min” for short) was 0.42 ± 0.02 % ID/g; the “Liver, imaging agent distribution at 60 min” value (from here on “Liver … at 60 min”) is given as 0.35 ± 0.02 % ID/g. In addition, the “Lung, imaging agent distribution at 60 min” value (“Lung … at 60 min” for short) is 0.42 ± 0.02 % ID/g; the “Muscle, imaging agent distribution at 60 min” value (“Muscle … at 60 min” below) was found to be 0.31 ± 0.02 % ID/g; the “Pancreas, imaging agent distribution at 60 min” value (“Pancreas … at 60 min” for short) came to 0.23 ± 0.03 % ID/g; the “Spleen, imaging agent distribution at 60 min” value (shortened to “Spleen … at 60 min”) is 0.37 ± 0.02 % ID/g.
Consider `CC(C)(C)n1ncc(OCc2ccc(Oc3cccnc3F)cc2)c(Cl)c1=O` [Example 67O], for which the “Blood … at 15 min” value amounted to 0.07 ± 0.03 % ID/g; the “Brain … at 15 min” value was 0.36 ± 0.04 % ID/g; the “Femur … at 15 min” value is given as 0.27 ± 0.02 % ID/g; the “Heart … at 15 min” value is 2.68 ± 0.35 % ID/g. Besides, the “Kidney … at 15 min” value is on record as 1.35 ± 0.14 % ID/g; the “Liver … at 15 min” value came to 0.99 ± 0.06 % ID/g; the “Lung … at 15 min” value is given as 0.37 ± 0.15 % ID/g; the “Muscle … at 15 min” value is reported as 0.28 ± 0.02 % ID/g. Also, the “Pancreas … at 15 min” value is given as 0.55 ± 0.10 % ID/g; the “Spleen … at 15 min” value turned out to be 0.31 ± 0.09 % ID/g; the “Blood … at 60 min” value is reported as 0.03 ± 0.00 % ID/g; the “Brain … at 60 min” value amounted to 0.36 ± 0.03 % ID/g. The “Femur … at 60 min” value turned out to be 0.37 ± 0.05 % ID/g; the “Heart … at 60 min” value stood at 2.46 ± 0.27 % ID/g; the “Kidney … at 60 min” value was 0.83 ± 0.08 % ID/g; the “Liver … at 60 min” value came to 0.83 ± 0.17 % ID/g. Besides, the “Lung … at 60 min” value amounted to 0.15 ± 0.03 % ID/g; the “Muscle … at 60 min” value is listed as 0.39 ± 0.04 % ID/g; the “Pancreas … at 60 min” value is reported as 0.38 ± 0.02 % ID/g; the “Spleen … at 60 min” value is given as 0.11 ± 0.02 % ID/g.
On to `CC(C)n1ncc(OCc2ccc(COCCF)cc2)c(Cl)c1=O` [Example 67H], for which the “Blood … at 15 min” value is listed as 0.45 ± 0.02 % ID/g; the “Brain … at 15 min” value was 0.43 ± 0.05 % ID/g; the “Femur … at 15 min” value is on record as 0.36 ± 0.04 % ID/g; the “Heart … at 15 min” value stood at 1.14 ± 0.09 % ID/g. Moreover, the “Kidney … at 15 min” value is recorded as 0.78 ± 0.01 % ID/g; the “Liver … at 15 min” value is recorded as 0.46 ± 0.01 % ID/g; the “Lung … at 15 min” value is given as 0.41 ± 0.01 % ID/g; the “Muscle … at 15 min” value is 0.38 ± 0.02 % ID/g. Also, the “Pancreas … at 15 min” value turned out to be 0.44 ± 0.03 % ID/g; the “Spleen … at 15 min” value came out at 0.34 ± 0.03 % ID/g; the “Blood … at 60 min” value is given as 0.55 ± 0.02 % ID/g; the “Brain … at 60 min” value worked out at 0.43 ± 0.02 % ID/g. Further, the “Femur … at 60 min” value was found to be 0.71 ± 0.06 % ID/g; the “Heart … at 60 min” value is given as 0.55 ± 0.03 % ID/g; the “Kidney … at 60 min” value came to 0.49 ± 0.03 % ID/g; the “Liver … at 60 min” value is given as 0.40 ± 0.02 % ID/g. In addition, the “Lung … at 60 min” value is on record as 0.42 ± 0.01 % ID/g; the “Muscle … at 60 min” value is listed as 0.31 ± 0.02 % ID/g; the “Pancreas … at 60 min” value is listed as 0.32 ± 0.02 % ID/g; the “Spleen … at 60 min” value is reported as 0.35 ± 0.02 % ID/g.
As for `CC(C)(C)n1ncc(OCc2ccc(OCCCF)c(Cl)c2)c(Cl)c1=O` [Example 67C], the “Blood … at 15 min” value stood at 0.26 ± 0.05 % ID/g; the “Brain … at 15 min” value amounted to 0.42 ± 0.01 % ID/g; the “Femur … at 15 min” value was found to be 0.33 ± 0.01 % ID/g; the “Heart … at 15 min” value is 4.21 ± 0.29 % ID/g. For the same compound, the “Kidney … at 15 min” value was determined as 3.04 ± 0.21 % ID/g; the “Liver … at 15 min” value stood at 2.67 ± 0.17 % ID/g; the “Lung … at 15 min” value is 0.50 ± 0.08 % ID/g; the “Muscle … at 15 min” value is 0.24 ± 0.04 % ID/g. In addition, the “Spleen … at 15 min” value stood at 0.37 ± 0.05 % ID/g; the “Blood … at 60 min” value is 0.20 ± 0.07 % ID/g; the “Brain … at 60 min” value came to 0.44 ± 0.03 % ID/g; the “Femur … at 60 min” value came out at 0.84 ± 0.07 % ID/g. In addition, the “Heart … at 60 min” value stood at 4.54 ± 0.29 % ID/g; the “Kidney … at 60 min” value amounted to 1.77 ± 0.25 % ID/g; the “Liver … at 60 min” value stood at 0.65 ± 0.12 % ID/g; the “Lung … at 60 min” value amounted to 0.61 ± 0.32 % ID/g. Moreover, the “Muscle … at 60 min” value amounted to 0.26 ± 0.02 % ID/g and the “Spleen … at 60 min” value came out at 0.18 ± 0.02 % ID/g.
As to `Cc1c(OCc2ccc(COCCF)cc2)cnn(C(C)(C)C)c1=O` [Example 67I], the “Blood … at 15 min” value was found to be 0.11 ± 0.02 % ID/g; the “Brain … at 15 min” value is 0.49 ± 0.10 % ID/g; the “Femur … at 15 min” value is listed as 0.28 ± 0.04 % ID/g; the “Heart … at 15 min” value turned out to be 2.34 ± 0.57 % ID/g. Besides, the “Kidney … at 15 min” value stood at 1.13 ± 0.11 % ID/g; the “Liver … at 15 min” value was 0.33 ± 0.02 % ID/g; the “Lung … at 15 min” value was determined as 0.19 ± 0.03 % ID/g; the “Muscle … at 15 min” value was 0.28 ± 0.13 % ID/g. For the same compound, the “Pancreas … at 15 min” value amounted to 0.43 ± 0.10 % ID/g; the “Spleen … at 15 min” value is 0.18 ± 0.01 % ID/g; the “Blood … at 60 min” value is 0.16 ± 0.01 % ID/g; the “Brain … at 60 min” value is given as 0.36 ± 0.01 % ID/g. The “Femur … at 60 min” value amounted to 0.31 ± 0.02 % ID/g; the “Heart … at 60 min” value worked out at 1.78 ± 0.15 % ID/g; the “Kidney … at 60 min” value came to 0.48 ± 0.04 % ID/g; the “Liver … at 60 min” value is 0.30 ± 0.01 % ID/g. Further, the “Lung … at 60 min” value is reported as 0.19 ± 0.01 % ID/g; the “Muscle … at 60 min” value amounted to 0.35 ± 0.09 % ID/g; the “Pancreas … at 60 min” value is recorded as 0.23 ± 0.02 % ID/g; the “Spleen … at 60 min” value was 0.13 ± 0.00 % ID/g.
For `CC(C)(C)n1ncc(OCc2cccc(OCCF)c2)c(Cl)c1=O` [Example 67F], the “Blood … at 15 min” value was found to be 0.32 ± 0.05 % ID/g; the “Brain … at 15 min” value amounted to 0.50 ± 0.04 % ID/g; the “Femur … at 15 min” value is 0.44 ± 0.04 % ID/g; the “Heart … at 15 min” value is listed as 1.92 ± 0.15 % ID/g. The “Kidney … at 15 min” value came to 1.04 ± 0.10 % ID/g; the “Liver … at 15 min” value is 0.40 ± 0.04 % ID/g; the “Lung … at 15 min” value is on record as 0.41 ± 0.03 % ID/g; the “Muscle … at 15 min” value is listed as 0.60 ± 0.06 % ID/g. Besides, the “Pancreas … at 15 min” value came out at 0.52 ± 0.04 % ID/g; the “Spleen … at 15 min” value stood at 0.28 ± 0.01 % ID/g; the “Blood … at 60 min” value came to 0.48 ± 0.01 % ID/g; the “Brain … at 60 min” value was found to be 0.38 ± 0.01 % ID/g. In addition, the “Femur … at 60 min” value amounted to 0.57 ± 0.04 % ID/g; the “Heart … at 60 min” value was 0.87 ± 0.02 % ID/g; the “Kidney … at 60 min” value was determined as 0.60 ± 0.03 % ID/g; the “Liver … at 60 min” value stood at 0.39 ± 0.04 % ID/g. The “Lung … at 60 min” value was 0.44 ± 0.03 % ID/g; the “Muscle … at 60 min” value came to 0.43 ± 0.07 % ID/g; the “Pancreas … at 60 min” value amounted to 0.48 ± 0.01 % ID/g; the “Spleen … at 60 min” value stood at 0.31 ± 0.01 % ID/g.
